# In article PMC8397956 (Molecules, 2021):
# Read-outs that look alike come from different tables or passages of the source. Marks after values point to notes of the source that are not given here.
# How the values were obtained:
# [1] = test system: fosmidomycin-resistant strain E. coli FosR; experiment: Growth inhibition of fosmidomycin-resistant E. coli FosR, paper disc diffusion; type: cell-based, Escherichia coli; conditions: GlpT/UhpT transporters inoperative, Figure 1B
# Description: (§1) The antimicrobial activity of hydroxamic acids 9b, 10a and 10b against E. coli XL1 Blue and fosmidomycin-resistant strain E. coli FosR [7], was determined using the paper disc diffusion method. LB agar plates (9 cm diameter) were inoculated with a suspension of bacteria (200 μL, mid-exponential phase). […] Growth inhibition was examined after 24 h incubation at 37 °C.
# [2] = test system: E. coli XL1 Blue; experiment: Growth inhibition of E. coli XL1 Blue, paper disc diffusion on LB solid medium; type: cell-based, Escherichia coli; conditions: for Growth Inhibition Zone: 24 h at 37 °C; for colonies of tolerant bacteria in the inhibition zone / bacterial growth inhibition (in words): paper disc diffusion; for bacterial growth inhibition (in words): Figure 1A
# Description: The antimicrobial activity of α,α-difluorophosphonate 9a and 10 was determined using the paper disc diffusion method and was compared with the antimicrobial activity of the non-fluorinated phosphonate and phosphate compounds 3, 4 et 6. The diameters of the inhibition zone are given with respect to the amount of inhibitor deposited on the disc (Table 2).
# as §1
# [3] = target: T1, E. coli H6-DXR (Escherichia coli, UniProt P45568); experiment: Inhibition of E. coli His-tagged DXR (photometric NADPH assay); type: biochemical
# T1 construct: His6 (H6)
# Description: The inhibition potency of α,α-difluorophosphonohydroxamic acid derivatives was characterized by their IC50 value that was determined as previously described. […] Residual activity was measured after initiating the enzymatic reaction by addition of DXP.
# The assays were performed at 37 °C in a 50 mM Tris/HCl buffer pH 7.5 containing 3 mM MgCl2 and 2 mM DTT. The concentrations of DXP and NADPH were 480 µM and 160 µM respectively. The decrease of absorbance at 340 nm due to NADPH oxidation was monitored to determine the initial rates. The retained values were the average of at least two measurements. The relative average deviation must be lower than 4%.
# Inhibitor concentrations in the stock solutions were verified by spectrophotometric phosphorus determination. The study compounds 9b and 10a, 10b were tested against E. coli DXR using a photometric assay that was described earlier. H-DXR was pre-incubated during 2 min in the presence of the inhibitors 9b, 10a and 10b at different concentrations and NADPH. DXP was then added to measure the residual activity. The inhibitory potential of the tested compounds was quantified by determining the IC50 values. They were obtained by plotting the percentage of residual activity versus the Log of inhibitor concentration.
# [4] = test system: E. coli XL1 Blue; conditions: cited from earlier work
# [5] = target: T1, E. coli H6-DXR; conditions: cited from earlier work
# [6] = test system: Plasmodium falciparum (K1 strain); design: method as in PMID 20568776; conditions: racemic mixtures, intraerythrocytic forms, ref [14]; cited from earlier work
# T1 sequence (P45568 whole entry): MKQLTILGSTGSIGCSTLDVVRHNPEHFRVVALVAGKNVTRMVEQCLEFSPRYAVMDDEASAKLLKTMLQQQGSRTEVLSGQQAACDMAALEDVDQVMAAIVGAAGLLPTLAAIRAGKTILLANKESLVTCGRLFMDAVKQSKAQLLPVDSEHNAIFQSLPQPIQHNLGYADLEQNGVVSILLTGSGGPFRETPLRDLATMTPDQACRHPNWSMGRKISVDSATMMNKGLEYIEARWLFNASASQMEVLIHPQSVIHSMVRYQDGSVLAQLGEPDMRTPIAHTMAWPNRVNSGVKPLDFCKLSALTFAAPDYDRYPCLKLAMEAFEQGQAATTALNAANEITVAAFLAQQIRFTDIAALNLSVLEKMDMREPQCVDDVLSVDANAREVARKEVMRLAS
smiles,measurement,setting,value
"CC(=O)N(O)CCC(F)(F)P(=O)(O)O [Compound 9b, (1,1-Difluoro-3-(N-hydroxyacetamido)propyl)phosphonic acid]",bacterial growth inhibition (in words),[1],No growth inhibition
same,Growth Inhibition Zone,[2]; 2 nmoles/disc,15 mm
same,colonies of tolerant bacteria in the inhibition zone,[2],did not appear
same,bacterial growth inhibition (in words),[2],quite effective to inhibit bacterial growth
same,IC50,[3],0.009 µM
CN(O)C(=O)CCCP(=O)(O)O [Compound 4b],Growth Inhibition Zone,"[4]; 80 nmoles/disc, ref [8]",30 ** mm
CN(O)C(=O)CCOP(=O)(O)O [Compound 6b],IC50,[5]; ref [9],0.046 µM
same,Growth Inhibition Zone,"[4]; 160 nmoles/disc, ref [9]",20 * mm
"CN(O)C(=O)CCC(F)(F)P(=O)(O)O [Compound 10b, (1,1-Difluoro-4-(hydroxy(methyl)amino)-4-oxobutyl)phosphonic acid]",Growth Inhibition Zone,[2]; 1.5 nmoles/disc,20 mm
same,colonies of tolerant bacteria in the inhibition zone,[2],did not appear
same,bacterial growth inhibition (in words),[2],quite effective to inhibit bacterial growth
same,IC50,[3],0.017 µM
O=C(CCCP(=O)(O)O)NO [Compound 4a],IC50,[5]; ref [8],0.18 µM
same,Growth Inhibition Zone,"[4]; 400 nmoles/disc, ref [8]",12 ** mm
CC(=O)N(O)CCOP(=O)(O)O [Compound 5b],IC50,[5]; ref [9],0.077 µM
O=C(CCOP(=O)(O)O)NO [Compound 6a],IC50,[5]; ref [9],2.6 µM
same,Growth Inhibition Zone,"[4]; 400 nmoles/disc, ref [9]",<10 * mm
CN(O)C(=O)CCC(F)P(=O)(O)O (stereo not drawn) [Compound 8],activity compared with parent compounds fosmidomycin and 4b,[6],more active
"O=C(CCC(F)(F)P(=O)(O)O)NO [Compound 10a, (1,1-Difluoro-4-(hydroxyamino)-4-oxobutyl)phosphonic acid]",bacterial growth inhibition (in words),[2],no inhibition was observed
same,IC50,[3],4.6 µM
same,fold less efficient than N-methylated analogue 10b,[3]; ratio of IC50 values on E. coli DXR,280
"O=CN(O)CCOP(=O)(O)O [Compound 5a, fosfoxacin]",IC50,[5]; ref [9],0.342 µM
"O=CN(O)CCCP(=O)(O)O [Compound 3a, fosmidomycin]",Growth Inhibition Zone,[2]; 2 nmoles/disc,35 mm
same,colonies of tolerant bacteria in the inhibition zone,[2],colonies of tolerant bacteria
CC(=O)N(O)CCC(F)P(=O)(O)O (stereo not drawn) [Compound 7],activity compared with parent compounds fosmidomycin and 4b,[6],more active
"CC(=O)N(O)CCCP(=O)(O)O [Compound 3b, FR-900098]",Growth Inhibition Zone,"[4]; 2 nmoles/disc, ref [9]",32 * mm
same,IC50,[3],0.004 µM
